# Active and inactive are the calls of the source. The calls are words filed in the database; no cut-off is given here.
# Columns and labels:
# DNA [1] = experiment: Antioxidant activity assessed as protection against AAPH-induced DNA damage in Escherichia coli plasmid pbr322 DNA after 1 hr by agarose gel electrophoresis method; type: functional
# [2] = Antioxidant activity assessed as trolox equivalents of AAPH-induced radical scavenging activity pretreated for 30 mins followed by […] challenge measured every 2 mins for 2 hrs by ORAC-FL assay; type: functional
# [3] = Antioxidant activity assessed as DPPH radical scavenging activity after 30 mins; type: functional
# [4] = Antioxidant activity assessed as ferric ion reducing activity by measuring trolox equivalents using Fe3+-TPTZ after 30 mins by FRAP assay; type: functional
# SH-SY5Y [5] = experiment: Cytoprotective activity against H2O2-induced oxidative damage in human SH-SY5Y cells at 5 uM preincubated for 24 hrs followed by H2O2 addition and measured after 24 hrs by MTT assay; type: functional
# SH-SY5Y [6] = experiment: Cytotoxicity against human SH-SY5Y cells up to 1 mM incubated for 24 hrs by MTT assay; type: cell-based
# SH-SY5Y [7] = experiment: Cytoprotective activity against H2O2-induced oxidative damage in human SH-SY5Y cells at 200 uM preincubated for 24 hrs followed by H2O2 addition and measured after 24 hrs by MTT assay; type: functional
# [8] = Antioxidant activity assessed as DPPH radical scavenging activity up to 250 uM after 30 mins; type: functional
# DNA [9] = experiment: Antioxidant activity assessed as protection against AAPH-induced DNA damage in Escherichia coli plasmid pbr322 DNA assessed as DNA intensity level at 0.65 uM after 1 hr by agarose gel electrophoresis method (reference value: 0%); type: functional
# DNA [10] = experiment: Antioxidant activity assessed as protection against AAPH-induced DNA damage in Escherichia coli plasmid pbr322 DNA assessed as DNA intensity level at 4 uM after 1 hr by agarose gel electrophoresis method (reference value: 0%); type: functional
# SH-SY5Y [11] = experiment: Cytotoxicity against human SH-SY5Y cells up to 20 uM incubated for 24 hrs by MTT assay; type: cell-based
# DNA [12] = experiment: Antioxidant activity assessed as protection against AAPH-induced DNA damage in Escherichia coli plasmid pbr322 DNA assessed as DNA intensity level at 1 uM after 1 hr by agarose gel electrophoresis method (reference value: 0%); type: functional
# SH-SY5Y [13] = experiment: Cytoprotective activity against H2O2-induced oxidative damage in human SH-SY5Y cells at 0.1 uM preincubated for 24 hrs followed by H2O2 addition and measured after 24 hrs by MTT assay; type: functional
# DNA [14] = experiment: Antioxidant activity assessed as protection against AAPH-induced DNA damage in Escherichia coli plasmid pbr322 DNA assessed as DNA intensity level at 2.6 uM after 1 hr by agarose gel electrophoresis method (reference value: 0%); type: functional
# DNA [15] = experiment: Antioxidant activity assessed as protection against AAPH-induced DNA damage in Escherichia coli plasmid pbr322 DNA assessed as DNA intensity level at 0.11 uM after 1 hr by agarose gel electrophoresis method (reference value: 0%); type: functional
# DNA [16] = experiment: Antioxidant activity assessed as protection against AAPH-induced DNA damage in Escherichia coli plasmid pbr322 DNA assessed as DNA intensity level at 0.33 uM after 1 hr by agarose gel electrophoresis method (reference value: 0%); type: functional
# SH-SY5Y [17] = experiment: Cytoprotective activity against H2O2-induced oxidative damage in human SH-SY5Y cells at 10 uM preincubated for 24 hrs followed by H2O2 addition and measured after 24 hrs by MTT assay; type: functional
# SH-SY5Y [18] = experiment: Cytoprotective activity against H2O2-induced oxidative damage in human SH-SY5Y cells up to 800 uM preincubated for 24 hrs followed by H2O2 addition and measured after 24 hrs by MTT assay; type: functional, cell-based
SMILES,IC50 [3],IC50 (DNA [1]),Activity [2],Activity [4],other results
COc1cc(CN(Cc2ccccc2)Cc2ccc(O)c(OC)c2)ccc1O,29.7 µM,3.8 µM,5.34 equiv,0.55 equiv,–
COc1cc(CN(Cc2ccc(O)c(OC)c2)[C@H]2CC[C@H](N(Cc3ccc(O)c(OC)c3)Cc3ccc(O)c(OC)c3)CC2)ccc1O,138 µM,–,–,0.56 equiv,–
COc1cc(/C=N/Cc2ccccc2)ccc1O,248 µM,3.8 µM,1.85 equiv,0.06 equiv,–
COc1cccc(CN(Cc2cccc(OC)c2)c2ccc(N(Cc3cccc(OC)c3)Cc3cccc(OC)c3)cc2)c1,–,13.6 µM,–,2.54 equiv,Activity [8]: inactive
c1ccc(CN(Cc2ccccc2)c2ccc(N(Cc3ccccc3)Cc3ccccc3)cc2)cc1,144 µM,–,–,2.81 equiv,–
COc1cc(C=O)cc(OC)c1O [SYRINGALDEHYDE],1150 µM,9.5 µM,1.45 equiv,0.93 equiv,–
COc1cc(CN(CCCN)Cc2ccc(O)c(OC)c2)ccc1O,–,61.5 µM,4.08 equiv,0.28 equiv,Activity [8]: inactive
COc1cc(CNCc2ccccc2)ccc1O,107 µM,4.1 µM,3.16 equiv,0.16 equiv,–
COc1cc(CN(CCCN(Cc2ccc(O)c(OC)c2)Cc2ccc(O)c(OC)c2)Cc2ccc(O)c(OC)c2)ccc1O,–,13.9 µM,7.54 equiv,0.74 equiv,Activity [8]: inactive
Oc1ccc(CN(Cc2ccc(O)cc2)c2ccc(N(Cc3ccc(O)cc3)Cc3ccc(O)cc3)cc2)cc1,98 µM,–,–,2.78 equiv,–
COc1cc(C=O)ccc1O [VANILLIN],4050 µM,5.6 µM,2.19 equiv,0.11 equiv,Activity (SH-SY5Y [18]): inactive

# Continued, in another order:
IC50 [3],SMILES,IC50 (DNA [1]),Activity [2],Activity [4],other results
21.9 µM,CCCCN(Cc1ccc(O)c(OC)c1)Cc1ccc(O)c(OC)c1,–,–,0.6 equiv,–
13.7 µM,COc1cc(CN(CCCO)Cc2ccc(O)c(OC)c2)ccc1O,3.6 µM,6.02 equiv,0.68 equiv,Activity (SH-SY5Y [5]): 6%; Activity (SH-SY5Y [6]): Non-Toxic; Activity (SH-SY5Y [7]): 20%
12.8 µM,COc1cc(CN(CCO)Cc2ccc(O)c(OC)c2)ccc1O,–,–,0.62 equiv,–
5.8 µM,COc1cc(CN(Cc2ccc(O)c(OC)c2)c2ccc(N(Cc3ccc(O)c(OC)c3)Cc3ccc(O)c(OC)c3)cc2)ccc1O,0.6 µM,20.4 equiv,5.29 equiv,Activity (DNA [9]): 59.7%; Activity (DNA [10]): 96.1%; Activity (SH-SY5Y [11]): Non-Toxic; Activity (DNA [12]): 81.9%; Activity (SH-SY5Y [13]): 8%; Activity (DNA [14]): 90.5%; Activity (DNA [15]): 15.8%; Activity (DNA [16]): 25.1%; Activity (SH-SY5Y [17]): 30%
15.4 µM,COc1cc(CN(Cc2ccccc2)Cc2cc(OC)c(O)c(OC)c2)cc(OC)c1O,–,–,1.11 equiv,–
12.3 µM,COc1cc(CN(CCCO)Cc2cc(OC)c(O)c(OC)c2)cc(OC)c1O,–,–,1.14 equiv,–
24 µM,COc1cc(CN(CCCCCO)Cc2ccc(O)c(OC)c2)ccc1O,–,–,0.63 equiv,–
21 µM,COc1cc(CN(CCCCO)Cc2ccc(O)c(OC)c2)ccc1O,–,–,0.62 equiv,–
22.2 µM,COc1cc(CN(CCCCCCO)Cc2ccc(O)c(OC)c2)ccc1O,–,–,0.64 equiv,–
